For orientation: IC50 means the concentration at which inhibition is half-maximal.

Assay [1] addresses H1/Nca HA (biotinylated full length trimeric HA, A/New Caledonia/20/1999) (Influenza A virus, UniProt Q6WG00). In words: AlphaLISA competition assay with HB80.4, H1/NCa HA. It counts as binding, influenza A virus H1N1 A/New Caledonia/20/1999. The source says: (§1) Binding competition studies were designed to test compounds of the invention for competition with other well characterized HA binding proteins (such as e.g. CR9114, CR6261 and HB80.4) with known epitopes on HA. The epitopes where either located at the stem of the HA (viral membrane proximal part of HA) or, for control purposes, at the head of HA (viral membrane distal part of HA). If competition was observed, it was assumed that both molecules bind to a similar or at least overlapping epitope at the surface of HA. Competition with a HA head- and stem-binder was interpreted as unspecific binding.
(§2) Hereto an AlphaLISA competition assay (Perkin Elmer) was established which relied on biotinylated full length and trimeric HA proteins (Protein Sciences, 10 μL, 0.5 nM final concentration in 50 μL) bound by HA-specific binders. The interaction between HA and the binder was detected after 1 h incubation at room temperature (RT) with two beads, a streptavidin donor bead recognizing HA (10 μL of 10 μg/mL) and an anti Fc bead (10 μg/mL) recognizing the IgGs used. If after an additional hour of incubation at RT the excited donor bead (680 nm) and acceptor bead are in close proximity, an energy transfer (singlet oxygen) can be measured as a luminescence signal of the acceptor bead (Perkin Elmer EnVision plate reader). The signal intensity in this homogeneous assay format is directly proportional to the binding strength (affinity/avidity) between both binding partners.

In assay [2] the target is H1/Cal HA (biotinylated full length trimeric HA, A/California/07/2009) (Influenza A virus, UniProt C3W5X2). In words: AlphaLISA competition assay with HB80.4, H1/Cal HA. It counts as binding, influenza A virus H1N1 A/California/07/2009.
Description: as §1, §2
On the technique in general: Alpha assays give light when donor and acceptor beads are brought close together.

Assay [3] relates to influenza virus A/New Caledonia (H1). Description: Virus neutralization assay (VNA) on Calu-3 cells. In kind it is cell-based, influenza A virus H1N1 A/New Caledonia/20/1999.
Setting [4] is: ALC_H1_NCa_HB80.4 calculated pIC50, AlphaLISA competition with HB80.4 on H1 NCa HA, 0.5 nM HA.
[5] abbreviates: Calu-3 cells, 5 TCID50/50 μL virus, 4 days, NP ELISA readout.

Like-named read-outs stand apart in the source and are kept apart here.

For the molecule `CSCC[C@@H]1NC(=O)CNC(=O)CNC(=O)[C@H](C)NC(=O)[C@H](C(C)C)NC(=O)CNC(=O)[C@H](CC(C)C)NC(=O)[C@@H]2CCCN2C(=O)[C@H](CC(=O)O)NC(=O)[C@H](CCCNC(=N)N)NC(=O)[C@H](Cc2ccc(O)cc2)NC(=O)[C@H](CC(C)C)NC(=O)[C@@H](NC(=O)CCC(=O)O)CSSC[C@@H](C(N)=O)NC(=O)CNC1=O` [CP141076, Suc-Cys-Leu-Tyr-Arg-Asp-Pro-Leu-Gly-Val-Ala-Gly-Gly-Met-Gly-Cys-NH2], the values for the IC50 in assay [1] (setting [4]) and in assay [2] were 126 nM and 100 nM, respectively. For the same molecule, in assay [3] (setting [5]), the “VNA_H1_NCa_Calu3 pIC50” value worked out at 6.0.
For `CSCC[C@@H]1NC(=O)CNC(=O)CNC(=O)[C@H](C)NC(=O)[C@H](C(C)C)NC(=O)CNC(=O)[C@H](CC(C)C)NC(=O)[C@@H]2CCCN2C(=O)[C@H](CC(=O)O)NC(=O)[C@H](CCC(=O)O)NC(=O)[C@H](Cc2ccc(O)cc2)NC(=O)[C@H](CC(C)C)NC(=O)[C@H](CO)NC(=O)[C@H](C(C)C)NC(=O)CNC(=O)[C@H]2CCCN2C(=O)[C@H](Cc2ccc(O)cc2)NC(=O)[C@H](C(C)C)NC(=O)CNC1=O` [CP141082, Gly-Val-Ser-Leu-Tyr-Glu-Asp-Pro-Leu-Gly-Val-Ala-Gly-Gly-Met-Gly-Val-Tyr-D-Pro], the IC50 in assay [1] (setting [4]) and in assay [2] was 20 nM in each case. In addition, in assay [3] (setting [5]), the “VNA_H1_NCa_Calu3 pIC50” value worked out at 4.3.
As to `CSCC[C@@H]1NC(=O)CNC(=O)CNC(=O)[C@H](C)NC(=O)[C@H](C(C)C)NC(=O)CNC(=O)[C@H](CC(C)C)NC(=O)[C@@H]2CCCN2C(=O)[C@H](CC(=O)O)NC(=O)[C@H](CCC(=O)O)NC(=O)[C@H](Cc2ccc(O)cc2)NC(=O)[C@H](CC(C)C)NC(=O)CNC(=O)[C@H]2CCCN2C(=O)CNC1=O` [CP141084, Gly-Leu-Tyr-Glu-Asp-Pro-Leu-Gly-Val-Ala-Gly-Gly-Met-Gly-D-Pro], the results for the IC50 in assay [1] (setting [4]) and in assay [2] were 398 nM and 794 nM, respectively. In assay [3] (setting [5]), the “VNA_H1_NCa_Calu3 pIC50” value is listed as 5.7.
Take `CSCC[C@@H]1NC(=O)CNC(=O)CNC(=O)[C@H](C)NC(=O)[C@H](C(C)C)NC(=O)CNC(=O)[C@H](CC(C)C)NC(=O)[C@@H]2CCCN2C(=O)[C@H](CC(=O)O)NC(=O)[C@H](CCC(=O)O)NC(=O)[C@H](Cc2ccc(O)cc2)NC(=O)[C@H](CC(C)C)NC(=O)[C@H](CO)NC(=O)[C@H](C(C)C)NC(=O)[C@@H]2CCCN2C(=O)[C@H]2CCCN2C(=O)[C@H](Cc2ccc(O)cc2)NC(=O)[C@H](C(C)C)NC(=O)CNC1=O` [CP141085, Pro-Val-Ser-Leu-Tyr-Glu-Asp-Pro-Leu-Gly-Val-Ala-Gly-Gly-Met-Gly-Val-Tyr-D-Pro]: the IC50 in assay [1] (setting [4]) was 12.6 nM; in assay [1] (IC50 in the alphalisa assay, best compound, strain not stated in text (matches pIC50 7.9 on H1 NCa)), 13 nM; in assay [2], 15.8 nM. The “VNA_H1_NCa_Calu3 pIC50” value in assay [3] (setting [5]) came out at 5.9.
On to `CSCC[C@@H]1NC(=O)CNC(=O)CNC(=O)[C@H](C)NC(=O)[C@H](C(C)C)NC(=O)CNC(=O)[C@H](CC(C)C)NC(=O)[C@@H]2CCCN2C(=O)[C@H](CC(=O)O)NC(=O)[C@H](CCC(=O)O)NC(=O)[C@H](Cc2ccc(O)cc2)NC(=O)[C@H](CC(C)C)NC(=O)[C@@H]2CCCN2C(=O)[C@H]2CCCN2C(=O)CNC1=O` [CP141086, Pro-Leu-Tyr-Glu-Asp-Pro-Leu-Gly-Val-Ala-Gly-Gly-Met-Gly-D-Pro], for which the values for the IC50 in assay [1] (setting [4]) and in assay [2] were 200 nM and 1580 nM, respectively. Besides, the “VNA_H1_NCa_Calu3 pIC50” value in assay [3] (setting [5]) amounted to 4.6.
Consider `CSCC[C@@H]1NC(=O)CNC(=O)CNC(=O)[C@H](C)NC(=O)[C@H](C(C)C)NC(=O)CNC(=O)[C@H](CC(C)C)NC(=O)[C@@H]2CCCN2C(=O)[C@H](CC(=O)O)NC(=O)[C@H](CCC(=O)O)NC(=O)[C@H](Cc2ccc(O)cc2)NC(=O)[C@H](CC(C)C)NC(=O)CNC(=O)CNC1=O` [CP141087, Leu-Tyr-Glu-Asp-Pro-Leu-Gly-Val-Ala-Gly-Gly-Met-Gly-Gly], for which the IC50 in assay [1] is 631 nM; in assay [2], 501 nM. For the same molecule, the “VNA_H1_NCa_Calu3 pIC50” value in assay [3] came out at 4.9.
Consider `CSCC[C@@H]1NC(=O)CNC(=O)CNC(=O)[C@H](C)NC(=O)[C@H](C(C)C)NC(=O)CNC(=O)[C@H](CC(C)C)NC(=O)[C@@H]2CCCN2C(=O)[C@H](CC(=O)O)NC(=O)[C@H](CCC(=O)O)NC(=O)[C@H](Cc2ccc(O)cc2)NC(=O)[C@H](CC(C)C)NC(=O)CNC1=O` [CP141088, Leu-Tyr-Glu-Asp-Pro-Leu-Gly-Val-Ala-Gly-Gly-Met-Gly], for which the IC50 in assay [1] and in assay [2] was 251 nM throughout. Further, the “VNA_H1_NCa_Calu3 pIC50” value in assay [3] amounted to 4.4.
Turning to `CSCC[C@@H]1NC(=O)CNC(=O)CNC(=O)[C@H](C)NC(=O)[C@H](C(C)C)NC(=O)CNC(=O)[C@H](CC(C)C)NC(=O)[C@@H]2CCCN2C(=O)[C@H](CC(=O)O)NC(=O)[C@H](CCC(=O)O)NC(=O)[C@H](Cc2ccc(O)cc2)NC(=O)[C@H](CC(C)C)NC(=O)[C@H](CO)NC(=O)[C@H]2CCCN2C(=O)[C@@H]2CCCN2C(=O)[C@H](C(C)C)NC(=O)CNC1=O` [CP141091, D-Pro-Ser-Leu-Tyr-Glu-Asp-Pro-Leu-Gly-Val-Ala-Gly-Gly-Met-Gly-Val-Pro], the values for the IC50 in assay [1] and in assay [2] were 6310 nM and 5010 nM, respectively. In addition, the “VNA_H1_NCa_Calu3 pIC50” value in assay [3] was 4.2.

(Values after patent publication US20200048308A1, “INFLUENZA VIRUS NE[…]” (priority 2016, published 2020).)
